Data set [1] has as its system NHBA (Neisseria Heparin Binding Antigen), recombinant (Neisseria meningitidis MC58 (serogroup B)). Put plainly: SPR. The following applies: SPR: Biacore T200, CM5 chip, 1:5 dilution series 1 nM-100 uM, single cycle kinetics; ITC: nano-ITC, PBS-NHBA control (PBS implied); pH and temperature not ….
For data set [2] the test system is unchanged. Put plainly: ITC. To be noted: SPR: Biacore T200, CM5 chip, 1:5 dilution series 1 nM-100 uM, single cycle kinetics; ITC: nano-ITC, PBS-NHBA control (PBS implied); pH and temperature not ….
Data set [3] deals with T1, NHBA (Neisseria Heparin Binding Antigen), recombinant (Neisseria meningitidis, UniProt Q7DD37).
T1 construct: pET19b, His-tagged; forward primer codes from SPDVK (lipoprotein signal peptide removed); immobilised by amine coupling on CM5 chip
The experiment in a line: SPR, single cycle kinetics, immobilised NHBA. For orientation: SPR reads the build-up and loss of mass on a sensor chip optically.

The mark [4] stands for this setting: read-out: KD (μM) (mean ± standard deviation); recombinant NHBA amine-coupled to CM5 chip; glycan in flow.
Where [5] appears, read: recombinant NHBA amine-coupled to CM5 chip; glycan in flow.

Where a name gives a salt, the structure may show the parent alone. Read-outs that look alike come from different tables or passages of the source.

T1 sequence (Q7DD37 25-488): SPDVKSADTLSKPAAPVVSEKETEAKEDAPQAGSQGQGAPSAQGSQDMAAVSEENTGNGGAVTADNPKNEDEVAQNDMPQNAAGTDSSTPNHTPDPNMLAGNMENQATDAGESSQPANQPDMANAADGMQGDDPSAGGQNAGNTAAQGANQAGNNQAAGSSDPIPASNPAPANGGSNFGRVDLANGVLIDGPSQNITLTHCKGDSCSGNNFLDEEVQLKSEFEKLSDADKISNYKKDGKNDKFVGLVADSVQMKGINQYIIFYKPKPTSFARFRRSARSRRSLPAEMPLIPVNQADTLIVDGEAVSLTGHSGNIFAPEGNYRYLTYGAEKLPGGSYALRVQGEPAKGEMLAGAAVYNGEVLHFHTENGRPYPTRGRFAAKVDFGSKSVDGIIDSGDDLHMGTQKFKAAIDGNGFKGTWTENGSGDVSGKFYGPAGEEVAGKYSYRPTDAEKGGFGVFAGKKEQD

The term Kd denotes the free concentration of one partner at which half of the binding sites on the other are occupied at equilibrium, for simple one-to-one binding. As to “503 bp PCR fragment of N. meningitidis genomic DNA”, the Kd stood at 71 nM in data set [1] and 3330 nM in data set [2].
Turning to `CC(=O)N[C@H]1C(O)O[C@H](CO)[C@@H](O[C@@H]2O[C@H](CO)[C@H](O[C@H]3O[C@H](CO)[C@H](O)[C@H](O)[C@H]3O)[C@H](O)[C@H]2O)[C@@H]1O` (stereo partly drawn) [2E, P1 antigen], the Kd in data set [3] (setting [4]) turned out to be 14.9 ± 3.48 µM.
As for `CC(=O)N[C@H]1C(O)O[C@H](CO)[C@@H](O[C@@H]2O[C@@H](C)[C@@H](O)[C@@H](O)[C@@H]2O)[C@@H]1O[C@@H]1O[C@H](CO)[C@H](O)[C@H](OS(=O)(=O)O)[C@H]1O` (stereo partly drawn) [8A, Sulfo Lewis A], the Kd in data set [3] (setting [4]) turned out to be 33.4 ± 2.54 µM.
Turning to `O=S(=O)(O)O[C@@H]1[C@H](O[C@H]2O[C@@H]3CO[C@H]([C@H]2O)[C@H]3O[C@@H]2O[C@H](CO)[C@H](O)[C@H](O[C@H]3O[C@@H]4CO[C@@H]([C@H]4O)[C@H]3O)[C@H]2O)[C@@H](O)C(O)O[C@@H]1CO` (stereo partly drawn) [12B, Neocarratetraose-4^1-O-sulfate (Na+)], the equilibrium dissociation constant (Kd) in data set [3] (setting [4]) came to 0.446 ± 0.151 µM.
Turning to `CC(=O)N[C@H]1C(O)O[C@H](CO)[C@@H](O)[C@@H]1O[C@@H]1OC(C(=O)O)=C[C@H](O)[C@H]1O` (stereo partly drawn) [13E, Hyaluronan disaccharide ΔDi-HA], in data set [3] (setting [4]), the Kd turned out to be 0.13 ± 0.03 µM.
As to `CC(=O)N[C@H]1C(O)O[C@H](CO)[C@H](OS(=O)(=O)O)[C@@H]1O[C@@H]1OC(C(=O)O)=C[C@H](O)[C@H]1OS(=O)(=O)O` (stereo partly drawn) [chondroitin disaccharide sulfated at 2 of GlcA/IdoA and 4 of GalNAc], the Kd in data set [3] (setting [5]) stood at 0.5 µM.
For the compound `CC(=O)N[C@H]1C(O)O[C@H](COS(=O)(=O)O)[C@H](O)[C@@H]1O[C@@H]1OC(C(=O)O)=C[C@H](O)[C@H]1OS(=O)(=O)O` (stereo partly drawn) [chondroitin sulfate type D disaccharide], the Kd in data set [3] (setting [5]) came to 0.0095 µM.
With `O=P(O)(O)OC[C@H]1O[C@@H](O)[C@H](O)[C@@H](O)[C@@H]1O` [compound 46, β-Glc6P], the dissociation constant Kd in data set [3] (recombinant NHBA amine-coupled to CM5 chip; glycan in flow; read-out: KD (μM) (mean ± standard deviation)) was determined as 0.056 ± 0.025 µM.

Source of the values: PMC5916922, “The Bexsero Neisseria meningitidis serogroup B vaccine antigen NHBA is a high-affinity chondroitin sulfate binding protein” (Scientific Reports, 2018).
